This note sets out measurements from patent US11298412B2, “Sphingoid compounds for prophylaxis and/or therapy of coronaviridae infection” (priority 2020, dated 2022).

One series concerns RV1b. Description: Binding of sphingosine to RV1b immobilized on agarose beads, remaining sphingosine by kinase assay. Set-up: species or system rhinovirus. The note with it: 250 μM sphingosine in PBS pH 7.0; 4 hrs at 4° C. How it is done:
As a complement to the above study, RV1b (obtained from ATCC) were immobilized to agarose beads and tested for binding of sphingosine (SPH). To this end, we incubated 1 μg/ml anti-RV1b antibodies with 10^6 CFU RV1b for 1 h at 4° C. in H/S, added 50 μL agarose protein A/G beads (Santa Cruz Inc.), incubated for an additional 1 h at 4° C. and washed the immobilized precipitates 5-times in H/S. We resuspended the beads in 500 μL PBS (pH 7.0) containing 250 μM sphingosine. Samples were incubated for 4 hrs at 4° C., pelleted and aliquots of the supernatants were added to 50 mM HEPES (pH 7.4), 250 mM NaCl, 30 mM MgCl2, 0.001 units sphingosine kinase (R&D), 1 mM ATP and 10 μCi [^32P]γATP. The kinase reaction was performed for 1 hr at 30° C., stopped by addition of 20 μl 1N HCl, 800 μl CHCl3/CH3OH/1N HCl (100:200:1, v/v/v), 240 μl CHCl3 and 2 M KCl. Phases were separated, the lower phase was collected, dried, dissolved in 20 μL of CHCl3:CH3OH (1:1, v/v) and separated on Silica G60 thin layer chromatography (TLC) plates using CHCl3/CH3OH/acetic acid/H2O (90:90:15:5, v/v/v/v). The TLC plates were exposed to radiography films, spots were removed from the plates, and the incorporation of [^32P] into sphingosine measured by liquid scintillation counting. Sphingosine was determined using a standard curve of C18-SPH. […]

A further series relates to rhinovirus 14 (RV14). Description: RV14 infection of freshly isolated human epithelial cells, Hela cytotoxicity readout. The class given is cell-based. The settings on record: 10 μM or 20 μM, 24 hrs. How it is done:
10^4 PFU of Rhinovirus 2 or 14 (RV2, RV14) were incubated with freshly isolated human epithelial cells for 24 hrs in the presence of 10 μM or 20 μM sphingosine (SPH) or the corresponding concentration of the solvent octylglucopyranoside (OGP), the cells were pelleted, supernatants completely removed, the cell pellets resuspended in PBS and added to Hela cells. Cells were incubated for 3 days and cytotoxicity as measurement for virus titers was determined. Shown is the mean±SD, n=4, *p<0.001 ANOVA.

Series [1] has as its target T1, receptor-binding domain of spike protein / ACE2 (Homo sapiens, UniProt Q9BYF1).
T1 construct: purchased Abcam (Fc-ACE2); Sino Biologicals (RBD-spike) ab273687 (Fc-ACE2); MA FE2702B, #40150-R007 (as printed for RBD-spike)
As to the kind of experiment: Binding of Fc-ACE2 to RBD-spike immobilized on Ni-agarose, western blot. The note with it: RBD immobilized on Ni2+-agarose; Fc-ACE2 with 1 μM or 2 μM sphingosine. For orientation: In western blotting, separated proteins are transferred to a membrane and probed.

Series [2] has as its system pp-VSV-SARS-CoV-2 spike. Type of series: cell-based.
The test system of series [3] is rhinovirus strain 2 (RV2). Description: Intranasal RV2 infection of wild-type mice, Hela cell death bioassay of nasal bone. The class given is in vivo. The settings on record: 10 μL of 100 μM intranasal 10 min before or 1, 4, 8 hrs after infection, 10^3 PFU, sacrificed after 24 hrs. The procedure: Mice were infected with 10^3 PFU rhinovirus strain 2 (RV2) in 10 μL PBS. The virus was applied directly into the nose using a blunt ended, plastic coated 30 g needle, that was inserted into the nose approximately 2 mm. Sphingosine (SPH) was applied into the nose of the wild-type mice at a concentration of 100 μM solution in PBS in a volume of 10 μL. Sphingosine was applied either 10 min prior to rhinovirus infection (b.i.) or 1 hr, 4 hrs and 8 hrs after the infection (a.i.). Controls received the solvent, i.e. octylglucopyranoside (OGP) at the same concentration than used when sphingosine was applied, or were left untreated, but infected. Solutions were applied as in 3.2. Mice were sacrificed after 24 hrs, the nasal bone was removed and incubated for 4 days with Hela cells in a 24 well plate. If the nasal epithelial cells are infected, rhinovirus will be released due to the cytopathic effect of the virus and the in vivo infection can then be determined and quantified by measuring cell death of Hela cells as a bioassay. To this end, dead cells were collected, adherent cells were trypsinized, the fractions were combined, washed twice in H/S (20 mM HEPES, 132 mM NaCl, 5 mM KCl, 1 mM CaCl2), 0.7 mM MgCl2, 0.8 mM MgSO4, pH 7.4), stained with Trypan Blue (0.2% final concentration) and dead cells were counted in aliquots of 500 cells as above. […]

In series [4] the test system is pp-VSV-SARS-CoV-2 spike. Type of series: cell-based. The source holds these as a separate data set.
A further series deals with Hela cells. Description: Effect of sphingosine alone on Hela cells, Trypan Blue cell death. The settings on record: uninfected Hela cells; 10 μM or 20 μM.
Series [5] deals with rhinovirus strain RV14 (major strain). Description: Rhinovirus RV14 infection of Hela cells, Trypan Blue cell death. The class given is cell-based. The note with it: 10 μM and 20 μM, added 10 min before or 60 min or 240 min after infection, 4 days.
For series [6], the system named is epithelial cells of the nose. Description: Toxicity of intranasal sphingosine on nasal epithelial cells of mice, Trypan Blue. The note with it: wild-type mice; 10 μL of 10 μM or 100 μM intranasal; 8 hours or 24 hours. The class given is in vivo. How it is done: Sphingosine was applied into the nose of wild-type mice as in 3.2. 10 μL of a 10 μM or a 100 μM sphingosine (SPH) solution was administered into the nostrils of wild-type mice. Controls received the solvent, i.e. octylglucopyranoside at the same concentration used when sphingosine was applied, or were left untreated. Mice were anesthetized prior to application of sphingosine. Mice were sacrificed after 8 hours or 24 hours, the nasal bone was removed and incubated in Trypsin solution for 10 min to release and isolate epithelial cells. Cells were washed twice in H/S (20 mM HEPES, 132 mM NaCl, 5 mM KCl, 1 mM CaCl2), 0.7 mM MgCl2, 0.8 mM MgSO4, pH 7.4), stained with Trypan Blue (0.2% final concentration) and dead cells were counted in aliquots of 500 cells. Given is the percentage of dead cells±SD from 4 independent experiments each; *p<0.05, ANOVA.

Series [7] deals with T2, receptor binding domain of spike S1 / ACE2 (Homo sapiens, UniProt Q9BYF1).
T2 construct: purchased Abcam (Fc-ACE2); Sino Biologicals (RBD-spike) ab273687 (Fc-ACE2); MA FE2702B, #40150-R007 (as printed for RBD-spike)
Description: Binding of recombinant RBD of spike S1 to immobilized Fc-ACE2, western blot.

In series [8] the test system is lymphocytic choriomeningitis virus (LCMV). Type of series: cell-based, LCMV strain WE.
Series [9] has as its system rhinovirus strain RV2 (minor strain). As to the kind of experiment: Rhinovirus RV2 infection of Hela cells, Trypan Blue cell death. Type of series: cell-based. The settings on record: 10 μM and 20 μM, added 10 min before or 60 min or 240 min after infection, 4 days.

The structures appear in SMILES notation. “Also recorded” adds a separate entry of the source.

T2 sequence (Q9BYF1 18-740): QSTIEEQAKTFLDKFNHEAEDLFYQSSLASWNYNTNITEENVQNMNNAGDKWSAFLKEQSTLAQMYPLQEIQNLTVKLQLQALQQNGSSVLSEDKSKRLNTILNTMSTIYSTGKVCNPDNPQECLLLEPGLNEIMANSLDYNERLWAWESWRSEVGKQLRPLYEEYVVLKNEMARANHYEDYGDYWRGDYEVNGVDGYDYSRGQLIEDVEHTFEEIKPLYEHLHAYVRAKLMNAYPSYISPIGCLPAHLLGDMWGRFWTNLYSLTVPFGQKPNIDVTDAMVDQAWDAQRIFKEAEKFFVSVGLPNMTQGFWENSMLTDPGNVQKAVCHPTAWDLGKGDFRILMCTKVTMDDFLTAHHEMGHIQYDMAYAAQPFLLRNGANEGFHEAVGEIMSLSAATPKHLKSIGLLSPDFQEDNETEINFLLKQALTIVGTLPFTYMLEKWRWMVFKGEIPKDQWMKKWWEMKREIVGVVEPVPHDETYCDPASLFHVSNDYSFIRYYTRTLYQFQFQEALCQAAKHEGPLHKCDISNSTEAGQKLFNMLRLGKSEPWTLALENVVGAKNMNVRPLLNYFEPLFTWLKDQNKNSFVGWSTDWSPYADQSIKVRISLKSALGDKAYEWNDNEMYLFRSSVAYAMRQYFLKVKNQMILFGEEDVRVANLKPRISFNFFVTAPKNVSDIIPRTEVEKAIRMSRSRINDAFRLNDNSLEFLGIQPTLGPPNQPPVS
T1 sequence (Q9BYF1 18-740): as above

In the case of `CCCCCCCCCCCCC/C=C/[C@@H](O)[C@@H](N)CO` [sphingosine, (2S,3R,4E)-2-amino-4-octadecene-1,3-diol], the “binding of sphingosine to RV1b-coupled agarose beads (remaining sphingosine in the supernatant)” value in the series on RV1b is “efficiently bind sphingosine”. In addition, the “infection of human epithelial cells by RV14” value in the series on rhinovirus 14 (RV14) is on record as “abrogates infection of human epithelial cells; also recorded: prevents infection of freshly isolated human nasal epithelial cells”. For the same molecule, the “interaction of the receptor-binding domain of spike protein with ACE2” value in [1] is “abolished the interaction of the receptor-binding domain of spike protein with ACE2”. Moreover, the “infection of human nasal epithelial cells with pp-VSV-SARS-CoV-2 spike (eGFP positive cells)” value with pp-VSV-SARS-CoV-2 spike [2] is “prevented infection; also recorded: prevents infection of freshly isolated human nasal endothelial cells by SARS-CoV-2”. The “infection with RV2 in vivo (percentage of dead Hela cells)” value in series [3] was “prevented; also recorded: prevents infection by RSV2”. In the series with pp-VSV-SARS-CoV-2 spike [4], the “effect on infection of Vero epithelial cells with pp-VSV-SARS-CoV-2” value was “marked effect”, the “infection of Vero cells by SARS-CoV-2” value was “prevents infection of Vero cells by SARS-CoV-2” and the “reduction of the infection of Vero epithelial cells with pp-VSV-SARS-CoV-2” value is recorded as “more than 90%”. For the same molecule, the “effect of sphingosine itself on the cells (percentage of dead cells)” value in the series with Hela cells was “no effect on the cells”. For the same molecule, the “infection with RV14 (percentage of dead cells)” value in series [5] is “prevented the infection; also recorded: prevention of RSV2 and RSV14 infection”. Besides, the “toxic effects on nasal epithelial cells (percentage of dead cells)” value in [6] is recorded as “no toxic effects on epithelial cells of the nose; also recorded: no toxic side effects”. The “binding of recombinant receptor binding domain of spike S1 to ACE2” value in series [7] (immobilized Fc-ACE2 pre-incubated with 1 μM or 2 μM sphingosine) is “prevented binding of recombinant receptor binding domain of spike S1 to ACE2”. The “binding of the recombinant RBD of spike S1 to ACE2” value in [7] (immobilized Fc-ACE2 pre-incubated with 2 μM sphingosine) is “reduced binding of the recombinant RBD of spike S1 to ACE2”. Besides, the “propagation of LCMV (infectious LCMV particles in the supernatant)” value in [8] is listed as “reduced propagation of LCMV; also recorded: inhibits the propagation of LCMV”. Moreover, the “infection with RV2 (percentage of dead cells)” value in series [9] was “prevented the infection; also recorded: prevention of RSV2 and RSV14 infection”.
